Results from US7192931B2, “Treatment of demyelinating diseases” (Neuren Pharmaceuticals Ltd., priority 2000, dated 2007).

How the values were obtained:
Type in all cases: in vivo, mouse
[1] = tested on: NMDA receptor subunit NR1; assay: NMDA receptor subunit NR1 expression in spinal cord; conditions: spinal cord of EAE mice, immunohistochemistry and Western blot
From the text: (§1) Frozen sections from lumbar spinal cord (10 μm) were acetone-fixed and immunostained for oligodendrocyte content with an antibody against CNPase (Sigma; diluted 1:100); for axonal damage with an antibody against non-phosphorylated neurofilament-H (SM 1-32; Stemberger Monoclonals Incorporated, Lutherville, Md., USA; diluted 1:1000), and for GluR2 and NR1 content using mouse mAbs obtained from Zymed Laboratories Inc., Carlton, San Francisco, Calif. Antibody staining was visualized with an avidin:biotinylated enzyme complex (Vector Laboratories, Burlingame, Calif., USA). Sections were viewed under a light microscope, and cells stained with the anti-CNPase and SM 1-32 antibodies were counted.
PBS-perfused spinal cords were homogenized in lysis buffer (50 mM Tris pH 7.4, 100 μM EDTA, 0.25 M sucrose, 1% sodium dodecyl sulfate [SDS], 1% Nonidet P-40 [NP40], 1 μg/mL leupeptin, 1 μg/mL pepstatin A, and 100 μM phenylmethylsulfonylfluoride) at 4° C. using a motor-driven homogenizer (Virtus, Gardiner, N.Y.). […] Protein concentrations of the supernatants were determined as described (Peterson, 1983), and 100 μg of protein resolved on 10% polyacrylamide SDS-gels under reducing conditions and then electrophoretically transferred to Hybond C Extra nitrocellulose membranes (Amersham Life Science, England). […]

GluR2 = GluR2 subunit expression in spinal cord; conditions: spinal cord of EAE mice, immunohistochemistry and Western blot
[2] = tested on: C57Bl/6 mice with MOG35-55 peptide-induced EAE; assay: Neuropathology scoring of spinal cord sections (pathology status scale); conditions: for Pathology status scale: Oligodendrocytes** / Pathology status scale: Remyelination**: reverse scores; for Pathology status scale: Axonal damage / Pathology status scale: Demyelination / Pathology status scale: Inflammation: scored 0 to 5; for Total scores After treatment (pathology status scale): sum over the six pathology parameters after treatment; for cumulative scores for inflammation, demyelination, remyelination, apoptosis, oligodendrocyte loss, and axonal damage following treatment: text statement of Table 2 totals
Experimental: C57Bl/6 mice (8–10 week old) were injected subcutaneously in one flank with 300 μg of MOG35-55 peptide ([…]: SEQ ID NO:1) synthesized by Mimotapes Pty Ltd, Clayton, Australia and emulsified in CFA containing 500 μg of Mycobacterium tuberculosis H37Ra (DIFCO Laboratories, Detrit, USA). They also received 500 ng of pertussis toxin (List Biological Laboratories, CA, USA) in 200 μl PBS intravenously via the tail vein, followed 48 hours later by a second dose. A second injection of MOG peptide was given in the absence of pertussis toxin one week later in the opposite flank, as described previously (Kanwar et al., 2000b).
Two treatment protocols were employed, involving the treatment of early disease, versus advanced disease. For early disease, reagents were administered at day 35 (following MOG injection). Antibody was administered thrice on alternate days, whereas neuroprotectors were given daily for 6 days, where 50% of reagent was given ip and 50% iv. In the treatment of advanced disease, therapy as above was initiated at day 60, with either three or eight anti-MAdCAM-1 mAb injections, and neuroprotectors given daily for either 7 or 18 days.
Mice were perfused through the left cardiac ventricle with ice-cold PBS or glutaraldehyde, and the CNS including brain and spinal cord were prepared for frozen or epoxy sections, respectively. Thin slices were taken at all levels of the CNS including spinal cord (cervical, midthoracic, T11, T12/13, upper lumbar, L6, L7 and sacral) and sacral roots. One-μm thick epoxy sections taken from different levels of the spinal cord were stained with toluidine blue, and examined by light microscopy by an investigator blinded to the sample identity. Multiple sections from the spinal cord were scored from 0 to 5 for inflammation, demyelination, remyelination, and axonal necrosis or damage, using a previously published scoring system (Moore et al., 2000).

oligodendrocytes = assay: Oligodendrocyte loss by CNPase immunostaining of dorsal columns; conditions: 31 for rat IgG and 26 for PBS treated control mice
From the text: as §1
To evaluate the effects of the different treatment regimes on the loss of oligodendrocytes, a key cellular target in demyelinating diseases of the CNS, oligodendrocytes were enumerated by immunohistochemical staining of spinal cord sections and the number of oligodendrocytes within the dorsal columns of […] transverse sections were counted (FIG. 5B), and reductions in oligodendrocyte numbers were calculated and expressed as % loss of oligodendrocytes per dorsal section (FIG. 5C). […]

[3] = tested on: dephosphorylated neurofilament-H; assay: Axonal damage: dephosphorylated neurofilament-H in spinal cord (Western blot, immunohistochemistry); conditions: for average relative densities of neurofilament-H: spinal cord homogenates, Western blot, 6.1 for rat IgG or PBS treated control mice; for effect on amount of axonal damage: spinal cord, dephosphorylated neurofilament-H
From the text: as §1
PBS-perfused spinal cords were homogenized in lysis buffer (50 mM Tris pH 7.4, 100 μM EDTA, 0.25 M sucrose, 1% sodium dodecyl sulfate [SDS], 1% Nonidet P-40 [NP40], 1 μg/mL leupeptin, 1 μg/mL pepstatin A, and 100 μM phenylmethylsulfonylfluoride) at 4° C. using a motor-driven homogenizer (Virtus, Gardiner, N.Y.). Spinal cord lysates from each group of mice were pooled and centrifuged at 10000 g for 10 minutes at 4° C. to remove tissue debris. Protein concentrations of the supernatants were determined as described (Peterson, 1983), and 100 μg of protein resolved on 10% polyacrylamide SDS-gels under reducing conditions and then electrophoretically transferred to Hybond C Extra nitrocellulose membranes (Amersham Life Science, England). The membranes were blocked with 3% bovine serum albumin in TBS-T (20 mM Tris, 137 mM NaCl, pH 7.6 containing 0.1% Tween-20) for 2 hours at room temperature. Immunodetection was accomplished by incubation overnight at 4° C. with SM1-32 (1:500 dilution), anti-CNPase (1:100 dilution) antibody, or anti-GluR2 and NR1 mAbs (1:200 dilution). The membranes were washed thrice with TBS-T and incubated with horseradish peroxidase-conjugated anti-mouse IgG (Sigma) diluted 1:5000 in TBS-T. Immunoreactivity was detected by Enhanced Chemiluminescence (Amersham International plc. England) and autoradiography.

For NS(=O)(=O)c1cccc2c1c([N+](=O)[O-])cc1nc(O)c(O)nc12 [NBQX, 2,3-dihydroxy-6-nitro-7-sulfamoylbenzo(f)quinoxaline], the “NMDA receptor (NR1 subunit) expression” value [1] was “caused down-regulation of the NMDA receptor”, the GluR2 expression (GluR2) was “downregulates the AMPA receptor” and the “Pathology status scale: Apoptosis” value ([2]; day 45) was 2. For the same compound, the “Pathology status scale: Oligodendrocytes**” value ([2]; day 45) was 2, the “Pathology status scale: Remyelination**” value ([2]; day 45) was 3 and the “Pathology status scale: Axonal damage” value ([2]; day 45) was 2. The “Pathology status scale: Demyelination” value ([2]; day 45) was 2, the “Pathology status scale: Inflammation” value ([2]; day 45) was 3 and the “Pathology status scale: Apoptosis” value ([2]; day 60) was 3. The “Pathology status scale: Oligodendrocytes**” value ([2]; day 60) was 3, the “Pathology status scale: Remyelination**” value ([2]; day 60) was 2 and the “Pathology status scale: Axonal damage” value ([2]; day 60) was 3. For the same compound, the “Pathology status scale: Demyelination” value ([2]; day 60) was 3, the “Pathology status scale: Inflammation” value ([2]; day 60) was 3 and the “Pathology status scale: Apoptosis” value ([2]; day 65) was 2. The “Pathology status scale: Oligodendrocytes**” value ([2]; day 65) was 2, the “Pathology status scale: Remyelination**” value ([2]; day 65) was 2 and the “Pathology status scale: Axonal damage” value ([2]; day 65) was 1. The “Pathology status scale: Demyelination” value ([2]; day 65) was 2, the “Pathology status scale: Inflammation” value ([2]; day 65) was 2 and the “Pathology status scale: Apoptosis” value ([2]; day 70) was 1. For the same compound, the “Pathology status scale: Oligodendrocytes**” value ([2]; day 70) was 1, the “Pathology status scale: Remyelination**” value ([2]; day 70) was 2 and the “Pathology status scale: Axonal damage” value ([2]; day 70) was 1. The “Pathology status scale: Demyelination” value ([2]; day 70) was 1, the “Pathology status scale: Inflammation” value ([2]; day 70) was 2 and the “Pathology status scale: Apoptosis” value ([2]; day 119) was 2. The “Pathology status scale: Oligodendrocytes**” value ([2]; day 119) was 2, the “Pathology status scale: Remyelination**” value ([2]; day 119) was 1 and the “Pathology status scale: Axonal damage” value ([2]; day 119) was 2. The “Pathology status scale: Demyelination” value ([2]; day 119) was 2, the “Pathology status scale: Inflammation” value ([2]; day 119) was 1 and the “Total scores After treatment (pathology status scale)” value [2] was 46. The “cumulative scores for inflammation, demyelination, remyelination, apoptosis, oligodendrocyte loss, and axonal damage following treatment” value [2] was 46, the “% loss of oligodendrocytes per dorsal section” value (oligodendrocytes) was 13% and the “average relative densities of neurofilament-H” value [3] was 3.5. For the same compound, the “effect on amount of axonal damage” value [3] was “almost halved the amount of axonal damage”.
In the case of Gly-Pro-Glu [GPE], the “NMDA receptor (NR1 subunit) expression” value [1] was “not effective”, the GluR2 expression (GluR2) was “negligible effect” and the “Pathology status scale: Apoptosis” value ([2]; day 45) was 3. The “Pathology status scale: Oligodendrocytes**” value ([2]; day 45) was 3, the “Pathology status scale: Remyelination**” value ([2]; day 45) was 2 and the “Pathology status scale: Axonal damage” value ([2]; day 45) was 3. For the same compound, the “Pathology status scale: Demyelination” value ([2]; day 45) was 3, the “Pathology status scale: Inflammation” value ([2]; day 45) was 2 and the “Pathology status scale: Apoptosis” value ([2]; day 60) was 3. The “Pathology status scale: Oligodendrocytes**” value ([2]; day 60) was 3, the “Pathology status scale: Remyelination**” value ([2]; day 60) was 3 and the “Pathology status scale: Axonal damage” value ([2]; day 60) was 3. For the same compound, the “Pathology status scale: Demyelination” value ([2]; day 60) was 3, the “Pathology status scale: Inflammation” value ([2]; day 60) was 3 and the “Pathology status scale: Apoptosis” value ([2]; day 65) was 2. The “Pathology status scale: Oligodendrocytes**” value ([2]; day 65) was 2, the “Pathology status scale: Remyelination**” value ([2]; day 65) was 2 and the “Pathology status scale: Axonal damage” value ([2]; day 65) was 2. For the same compound, the “Pathology status scale: Demyelination” value ([2]; day 65) was 2, the “Pathology status scale: Inflammation” value ([2]; day 65) was 2 and the “Pathology status scale: Apoptosis” value ([2]; day 70) was 3. The “Pathology status scale: Oligodendrocytes**” value ([2]; day 70) was 2, the “Pathology status scale: Remyelination**” value ([2]; day 70) was 2 and the “Pathology status scale: Axonal damage” value ([2]; day 70) was 3. The “Pathology status scale: Demyelination” value ([2]; day 70) was 3, the “Pathology status scale: Inflammation” value ([2]; day 70) was 2 and the “Pathology status scale: Apoptosis” value ([2]; day 119) was 2. The “Pathology status scale: Oligodendrocytes**” value ([2]; day 119) was 2, the “Pathology status scale: Remyelination**” value ([2]; day 119) was 1 and the “Pathology status scale: Axonal damage” value ([2]; day 119) was 2. The “Pathology status scale: Demyelination” value ([2]; day 119) was 2, the “Pathology status scale: Inflammation” value ([2]; day 119) was 1 and the “Total scores After treatment (pathology status scale)” value [2] was 55. The “cumulative scores for inflammation, demyelination, remyelination, apoptosis, oligodendrocyte loss, and axonal damage following treatment” value [2] was 55, the “% loss of oligodendrocytes per dorsal section” value (oligodendrocytes) was 14% and the “average relative densities of neurofilament-H” value [3] was 3.2. For the same compound, the “effect on amount of axonal damage” value [3] was “almost halved the amount of axonal damage”.
